The source of these data is ChEMBL document CHEMBL5726747, “Substituted pyrido[3,4-d]pyrimidines and pyrido[4,3-d]pyrimidines as p70S6K inhibitors” (2019).

In general, IC50 refers to the midpoint of a concentration-inhibition curve.

Molecules are shown by their SMILES.

The target of test [1] is RAC-alpha serine/threonine-protein kinase (Homo sapiens, UniProt P31749). The test can be described thus: AKT/PKB Kinase Assay: In order to measure AKT inhibition in the Caliper Life Sciences LC3000, a TTP Mosquito liquid handling instrument was used to place 125 nl of the appropriate concentration of inhibitor in 100% DMSO (for a dose response curve calculation) into each well of a 384-well plate. To this reaction, the following components were added to a final volume of 12.5 μl: 0.1 ng/μl His-AKT (Full Length) (Invitrogen, Part # P2999, Lot #641228C); 160 μM ATP (Fluka, 02055); 1 mM DTT (Sigma, D0632); 1 mM MgCl2 (Sigma, M1028); 1 μM substrate peptide (sequence FITC-AHA-[…]-NH2), synthesized by Tufts Peptide Synthesis service; 100 mM HEPES pH 7.5 (Calbiochem, 391338); and 0.015% Brij-35 (Sigma, B4184).The reaction was incubated for 90 min at 25° C., and then stopped by the addition of 70 μl of Stop buffer (100 mM HEPES pH 7.5, 0.015% Brij-35, 10 mM EDTA (Sigma, E7889)). The plate was read on a Caliper LC 3000 in an Off-Chip mobility shift assay format, using the following parameters for a 12-sipper chip: screening pressure −2.3 psi, upstream voltage −500, and downstream voltage −3000. These conditions cause unphosphorylated substrate and phosphorylated product peptide to resolve as separate peaks allowing direct measurement of percentage of conversion of substrate to product. The percent conversion was plotted against concentration of inhibitor to produce a sigmoidal dose response curve, from which an IC50 was calculated.

In test [2] the target is Ribosomal protein S6 kinase beta-1 (Homo sapiens, UniProt P23443, T412E). Description: p70S6K Enzyme Assay: p70S6K inhibitor compounds were diluted and plated in 96 well plates. A reaction mixture including the following components were then added to the compound plate to initiate the enzyme reaction: p70S6K (3 nM, T412E mutant, Millipore) was mixed with 24 μM ATP in an assay buffer containing 100 mM Hepes (pH 7.5), 5 mM MgCl2, 1 mM DTT, 0.015% Brij and 1 μM of the substrate peptide FITC-AHA-[…]-OH (derived from the S6 ribosomal protein sequence, FITC=fluorescein isothiocyanate, AHA=6-aminohexanoic acid). The reaction was incubated for 90 min at 25° C., before the addition of 10 mM EDTA to stop the reaction. The proportion of substrate and product (phosphorylated) peptide was analyzed on a Caliper Life Sciences Lab Chip 3000, using a pressure of −1.4 psi, and upstream and downstream voltages of −3000 and −700, respectively. Product peaks were resolved before substrate peaks on the resulting chromatograms. To assess the inhibitory potential of the compounds, IC50 values were determined, as shown above.
Chain of Ribosomal protein S6 kinase beta-1 (P23443 whole entry T412E): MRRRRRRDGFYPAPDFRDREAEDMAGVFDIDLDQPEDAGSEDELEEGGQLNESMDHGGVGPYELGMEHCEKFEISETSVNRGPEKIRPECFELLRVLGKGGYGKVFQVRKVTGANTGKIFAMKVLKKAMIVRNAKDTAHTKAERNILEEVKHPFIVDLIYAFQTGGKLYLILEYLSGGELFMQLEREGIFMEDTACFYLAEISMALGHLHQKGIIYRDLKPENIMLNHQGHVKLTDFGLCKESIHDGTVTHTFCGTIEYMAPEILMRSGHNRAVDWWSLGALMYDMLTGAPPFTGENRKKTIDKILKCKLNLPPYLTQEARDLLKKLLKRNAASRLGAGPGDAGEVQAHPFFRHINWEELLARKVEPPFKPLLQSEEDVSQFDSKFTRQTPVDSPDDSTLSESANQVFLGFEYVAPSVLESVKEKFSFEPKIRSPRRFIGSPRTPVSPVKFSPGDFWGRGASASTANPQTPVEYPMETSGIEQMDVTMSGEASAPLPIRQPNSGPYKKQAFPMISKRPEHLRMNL

Chain of RAC-alpha serine/threonine-protein kinase (P31749 whole entry): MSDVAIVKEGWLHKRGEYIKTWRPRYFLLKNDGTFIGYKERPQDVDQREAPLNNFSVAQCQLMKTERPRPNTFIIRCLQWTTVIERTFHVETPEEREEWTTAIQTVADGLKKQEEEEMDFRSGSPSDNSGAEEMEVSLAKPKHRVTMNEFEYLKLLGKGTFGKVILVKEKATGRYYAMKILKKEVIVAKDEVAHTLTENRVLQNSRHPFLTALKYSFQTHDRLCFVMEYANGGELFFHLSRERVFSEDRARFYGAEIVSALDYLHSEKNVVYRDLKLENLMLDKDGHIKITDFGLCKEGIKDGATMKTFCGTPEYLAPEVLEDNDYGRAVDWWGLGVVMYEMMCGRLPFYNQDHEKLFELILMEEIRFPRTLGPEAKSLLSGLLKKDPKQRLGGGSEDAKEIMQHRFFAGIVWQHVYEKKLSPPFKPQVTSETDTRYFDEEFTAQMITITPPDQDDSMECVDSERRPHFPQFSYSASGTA

For `N#Cc1ccc([C@@H](CN2CCC2)Nc2ncnc3c(C(N)=O)ccnc23)cc1Cl`, the IC50 in test [1] and in test [2] was less than 0.025 µM in each case.

In the case of `CCNC[C@@H](Nc1ncnc2c(C(N)=O)ccnc12)c1ccc(F)c(Br)c1`, in test [2], the IC50 was less than 0.025 µM.

`NC(=O)c1ccnc2c(N[C@H](CN3CCC3)c3ccc(F)c(C(F)(F)F)c3)ncnc12`: the IC50 in test [1] and in test [2] was less than 0.025 µM each time.

As to `CN(C)C[C@@H](Nc1ncnc2c(C(N)=O)ccnc12)c1ccc(Cl)c(F)c1`, the IC50 in test [2] was less than 0.025 µM.

With `NC(=O)c1ccnc2c(N[C@H](CN3CCC3)c3ccc(F)c(C(F)F)c3)ncnc12`, the 50% inhibitory concentration (IC50) in test [1] and in test [2] was less than 0.025 µM in each case.

Regarding `CCNC[C@@H](Nc1ncnc2c(C(N)=O)ccnc12)c1ccc(F)c(Cl)c1`, the IC50 in test [2] is less than 0.025 µM.

As to `CNC[C@@H](Nc1ncnc2c(C(N)=O)ccnc12)c1ccc(F)c(Cl)c1`, the IC50 in test [1] and in test [2] was less than 0.025 µM each time.
